From patent publication US6403643B1, “Use of 2,5-dihydroxybenzenesulfonic derivatives for the normalization of endothelial function” (Laboratories del Dr. Esteve, S.A., priority 1997, dated 2002)

Key:
endothelium = assay: Endothelium-dependent vascular relaxation in normal animals and animals with vitamin D2-induced vascular aging (background statement); conditions: normal animals and animals with vascular aging produced by high doses of vitamin D2
Excerpt: This effect is observed both in normal animals and in those in which vascular aging has been produced experimentally by means of the administration of high doses of vitamin D2. This activity of calcium dobesilate, of ethamsylate and of persilate may be reflected in man by effects which are therapeutically useful. […] Rosen, “The Pharmacology of Sexual Function and Dysfunction”, edited by J. Bancroft, Elsevier Sc., 1995, cages 277-287). The normalization of the endothelial function obtained with calcium dobesilate, ethamsylate and persilate can represent an entirely novel therapeutic approach to the problem of impotence (I. Saenz de Tejada et al., N. Engl. J. Med., 1989, 320, 1025-1030), both in patients with vascular disorders with various causes (diabetes, arteriosclerosis, and the like) and in patients where only a functional disorder can be detected.

[1] = test system: aortas isolated from male rabbits; assay: Relaxation of the contraction of isolated aorta maintained with 10^−6 M noradrenalin (in vitro); assay type: cell-based, rabbit; conditions: aorta contraction maintained with 10^−6 M noradrenalin; concentrations between 10^−4M and 10^−11M
Experimental: (§1) The studies were carried out by using the aortas isolated from male rabbits according to the techniques described by A. Quintana et al. (Europ. J. Pharmacol., 1978, 53, 113-116) and by the group from the University of Edinburgh (Pharmacological Experiments on Isolated Preparations, Edinburgh, Livingstone, 1970). The aortas isolated without the endothelium are prepared according to the technique described by R. Furchgott et al. (J. Cardiol. Pharmacol., 1984, 6, p. 336-p. 343).
1) Effect on the contraction of the aorta maintained with 10^−6 M noradrenalin.
Calcium dobesilate relaxes the contraction of noradrenalin in a way dependent on the concentration (between 10^−4M and 10^−11M). The maximum relaxation was 70%.

[2] = test system: aortas isolated from male rabbits; assay: Effect on the basal tension in aorta arteries with and without endothelium (basal tension 2 grams); assay type: cell-based, rabbit; conditions: concentrations between 10^−8M and 10^−4
Experimental: as §1
2) Effect on the basal tension in the aorta arteries with and without endothelium (basal tension=2 grams).
Calcium dobesilate at concentrations between 10^−8M and 10^−4 relaxes, in a dose-dependent way, the aortas subjected to a basal tension of 2 grams. The maximum relaxation was 44% for the arteries with endothelium and 48% for the arteries without endothelium.

[3] = test system: aortas originating from the treated rabbits; assay: Protective effect on the endothelium: relaxation of noradrenalin-contracted aortas from rabbits with vitamin D2 overdose; assay type: in vivo, rabbit; conditions: 10^−6M noradrenalin, calcium dobesilate between 10^−11M and 10^−5M on the artery
Experimental: The protective effect on the endothelium with calcium dobesilate was studied in the rabbit.
To do this, the arterial endothelium in rabbits is damaged by a daily treatment with an overdose of vitamin D2 and three groups of animals are used in the study:
II—Hypervitaminosis D2+50 mg/kg/day calcium dobesilate.
The studies are carried out with arteries originating from the treated rabbits by measuring the effect on the contraction of the aorta maintained with 10^−6M noradrenalin.
Calcium dobesilate (between 10^−11M and 10^−5M) relaxes in a dose-dependent way the contraction due to noradrenalin. The least relaxation corresponds to the hypervitaminosis D2 group (group I), whereas the maximum relaxation is obtained with the aortas of the group treated with calcium dobesilate (group II).
The maximum relaxation obtained for each group was as follows: […]

[4] = test system: aortas isolated from male rabbits; assay: Effect on the noradrenalin concentration/effect curve in aorta with and without endothelium; assay type: cell-based, rabbit; conditions: concentration of 10^−6M
Experimental: as §1
3) Effect on the noradrenalin concentration/effect curve.
In arteries with the intact endothelium, calcium dobesilate at a concentration of 10^−6M inhibits a 44% the contraction obtained with 10 ^−4M noradrenalin.

| Compound | effects on the endothelium (endothelium) | maximum relaxation of the contraction of noradrenalin [1] | maximum relaxation of basal tension ([2]; arteries with endothelium) | maximum relaxation of basal tension ([2]; arteries without endothelium) | maximum relaxation of the contraction due to noradrenalin ([3]; aortas of Group I (hypervitaminosis D2)) | maximum relaxation of the contraction due to noradrenalin ([3]; aortas of Group II (hypervitaminosis D2 + 50 mg/kg/day calcium dobesilate)) | maximum relaxation of the contraction due to noradrenalin ([3]; aortas of Group O (control rabbits)) | inhibition of the contraction obtained with 10^−4M noradrenalin ([4]; arteries with the intact endothelium) | effect on the noradrenalin concentration/effect curve ([4]; arteries without endothelium) |
| --- | --- | --- | --- | --- | --- | --- | --- | --- | --- |
| CCNCC.CCNCC.O=S(=O)(O)c1cc(O)c(S(=O)(=O)O)cc1O [persilate, Bis(diethylamine) 2,5-dihydroxybenzene-1,4-disulfonate] | facilitating endothelium-dependent vascular relaxation |  |  |  |  |  |  |  |  |
| CCNCC.O=S(=O)(O)c1cc(O)ccc1O [ethamsylate, Diethylamine 2,5-dihydroxybenzenesulfonate] | facilitating endothelium-dependent vascular relaxation |  |  |  |  |  |  |  |  |
| Calcium 2,5-dihydroxybenzenesulfonate [calcium dobesilate] | facilitating endothelium-dependent vascular relaxation | 70% | 44% | 48% | 52% | 100% | 69% | 44% | no modification of the curve |
